{"source": "paper PMC10401071", "about": "(Cancer Discovery, 2023)", "origin": "cited, not measured here", "system": "WDLPS and DDLPS", "conditions": "patients with WDLPS and DDLPS; cited from earlier work", "data": [{"smiles": "COc1cccc2c1C(=O)c1c(O)c3c(c(O)c1C2=O)C[C@@](O)(C(=O)CO)C[C@@H]3O[C@H]1C[C@H](N)[C@H](O)[C@H](C)O1", "note": "[doxorubicin]", "values": [{"measurement": "overall survival", "value": "~9", "unit": "months"}]}]}
